These results are taken from patent US6462205B1, “Method of preparing benzofurandione oxime derivatives” (Bayer Aktiengesellscahft, priority 1999, dated 2002).

Read-outs that look alike come from different tables or passages of the source.

The data set is described as follows: log p of the isomers of 3-methoximino-2-oxo-2,3-dihydrobenzofuran. Conditions: product of Example 5, value per isomer. The class given is physicochemical.

Turning to `CON=C1C(=O)Oc2ccccc21` (single isomer, unassigned; isomer 3) [E isomer, 3-Methoximino-2-oxo-2,3-dihydrobenzofuran], the logP (read-out: log p) turned out to be 2.2.

As to `CON=C1C(=O)Oc2ccccc21` (single isomer, unassigned; isomer 3) [Z isomer, 3-Methoximino-2-oxo-2,3-dihydrobenzofuran], the logP was found to be 2.14.
